Non-standard residues stand in square brackets, D forms with d. Residues, ends and D or L forms follow the SMILES beside them. *: point of attachment. dHis(τ-Bn) = N[C@H](Cc1cn(Cc2ccccc2)cn1)C(=O)O; d2Nal = N[C@H](Cc1ccc2ccccc2c1)C(=O)O; pGlu = O=C1CC[C@@H](C(=O)O)N1; tBu = CC(C)(C)*
Columns and labels:
[1] = Solubility in PBS (LC/UV AUC trend); conditions: PBS pH 7.4, 0.2 mg/ml; rating 1 (good) to 5 (poor)
[2] = Stability in aqueous media (PBS pH 7.4); format: physicochemical; design: unit not given here; conditions: phosphate buffer solution (PBS); PBS pH 7.4, 37° C., samples at T=0, 4, 24, 96 h; read-out: Stability grading (t1/2)
Source text: LC/MS data was collected for compound identity.

GnRHR = target: T1, GnRHR (Homo sapiens, UniProt P30968); test: Calcium assay in CHO-K1 cells (Genscript), FLIPR; format: cell-based; conditions: CHO-K1/GnRHR/Ga15 cells, relative to agonist control, read-out: GNRHR Stimulation at 1 μM
T1 construct: host or cells: CHO-K1 (CHO-K1/GnRHR/Ga15)
T1 sequence (P30968 1-328): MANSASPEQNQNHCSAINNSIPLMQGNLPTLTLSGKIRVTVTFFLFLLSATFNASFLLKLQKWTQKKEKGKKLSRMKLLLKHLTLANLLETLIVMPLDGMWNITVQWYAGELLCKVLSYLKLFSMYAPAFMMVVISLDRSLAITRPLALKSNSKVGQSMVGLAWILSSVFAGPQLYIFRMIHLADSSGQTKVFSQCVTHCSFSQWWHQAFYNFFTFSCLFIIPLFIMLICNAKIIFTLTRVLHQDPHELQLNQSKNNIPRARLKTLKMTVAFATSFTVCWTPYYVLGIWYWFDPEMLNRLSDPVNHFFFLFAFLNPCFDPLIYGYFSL
Procedure: Test article sample solutions were dissolved in HBSS buffer (with 20 mM HEPES buffer, pH 7.4) to form the 5× working solution. FLIPR® Calcium 4 assay kit from Molecular devices (R8141) was used as required. In brief, CHO-K1 cells expressing GnRHR (CHO-K1/GnRHR/Ga15, Genscript accession NM_000406) were respectively cultured in the 10-cm dishes and maintained at 37° C./5% CO2. CHO-K1 cells expressing GNRHR were respectively seeded in a 384-well black-wall, clear-bottom plate at a density of 15,000 cells per well in 20 μl of growth medium about 18 hours prior to the day of experiment and maintained at 37° C./5% CO2. Then, 20 μl of dye loading solution was added into the wells and the plates were subsequently placed into a 37° C. incubator for 60 minutes, followed by a 15 minutes' incubation at room temperature. At last, 10 μl of compounds or control agonist were added into respective wells of the assay plate during reading in FLIPR. The plate containing 5× compound and control agonist solution was placed in FLIPR. Solutions were added into the cell plate automatically at the 20 seconds and the fluorescence signal was monitored for an additional 100 seconds (21 sec to 120 sec.). Data were recorded by ScreenWorks (version 3.1) as FMD files with FLIPR and stored on the GenScript computer network for off-line analysis. Data acquisition and analyses was performed using ScreenWorks (version 3.1) program and exported to Excel. The average value of the first 20 seconds' reading was calculated as the baseline and the relative fluorescent units (ΔRFU) intensity values were calculated by subtracting the average value of baseline from the maximum fluorescent units (21 s to 120 s).
The % Stimulation was calculated with the following equation: % Stimulation=(ΔRFUCompound−ΔRFUBackground)/(ΔRFUAgonist control−ΔRFUBackground)×100
Dose response curves were fitted with four-parameter-logistic-equation by the software GraphPad Prism 6.
Equation: four parameter logistic equation. Y=Bottom+(Top-Bottom)/(1+10^((Log EC50−X)×Hillslope))
X is the logarithm of concentration. Y is the response.

SMILES | Solubility grading [1] | half-life at 0.2 mg/ml [2] | activation at 1 µM (GnRHR) [%]
CCNC(=O)[C@@H]1CCCN1C(=O)[C@H](CCCNC(=N)N)NC(=O)[C@H](CC(C)C)NC(=O)[C@@H](COC(C)(C)C)NC(=O)[C@H](Cc1ccc(O)cc1)NC(=O)[C@H](CO)NC(=O)[C@H](Cc1c[nH]c2ccccc12)NC(=O)[C@H](Cc1cnc[nH]1)NC(=O)[C@@H]1CCC(=O)N1 [Buserelin acetate, reference compound] | 1 | – | –
CCNC(=O)[C@@H]1CCCN1C(=O)[C@H](CCCNC(=N)N)NC(=O)[C@H](CC(C)C)NC(=O)[C@@H](COC(C)(C)C)NC(=O)[C@H](Cc1c[nH]cn1)NC(=O)[C@H](CO)NC(=O)[C@H](Cc1c[nH]c2ccccc12)NC(=O)[C@H](Cc1c[nH]cn1)NC(=O)[C@@H]1CCC(=O)N1 [Compound 6, pGlu-His-Trp-Ser-His-D-Ser(tBu)-Leu-Arg-Pro-NHEt] ([pGlu]HWSH[dS](tBu)LRP-NHEt) | 1 | > 96 | 88
CCNC(=O)[C@@H]1CCCN1C(=O)[C@H](Cc1ccc(O)cc1)NC(=O)[C@H](CC(C)C)NC(=O)[C@@H](COC(C)(C)C)NC(=O)[C@H](Cc1ccc(O)cc1)NC(=O)[C@H](CO)NC(=O)[C@H](Cc1c[nH]c2ccccc12)NC(=O)[C@H](Cc1c[nH]cn1)NC(=O)[C@@H]1CCC(=O)N1 [Compound 9, pGlu-His-Trp-Ser-Tyr-D-Ser(tBu)-Leu-Tyr-Pro-NHEt] ([pGlu]HWSY[dS](tBu)LYP-NHEt) | 1 | > 96 | 78
CCNC(=O)[C@@H]1CCCN1C(=O)[C@H](CCCNC(=N)N)NC(=O)[C@H](Cc1c[nH]c2ccccc12)NC(=O)[C@@H](COC(C)(C)C)NC(=O)[C@H](Cc1c[nH]cn1)NC(=O)[C@H](CO)NC(=O)[C@H](Cc1c[nH]c2ccccc12)NC(=O)[C@H](Cc1c[nH]cn1)NC(=O)[C@@H]1CCC(=O)N1 [Compound 10, pGlu-His-Trp-Ser-His-D-Ser(tBu)-Trp-Arg-Pro-NHEt] ([pGlu]HWSH[dS](tBu)WRP-NHEt) | 1 | > 96 | 81
CCNC(=O)[C@@H]1CCCN1C(=O)[C@H](Cc1ccc(O)cc1)NC(=O)[C@H](CC(C)C)NC(=O)[C@@H](COC(C)(C)C)NC(=O)[C@H](Cc1c[nH]cn1)NC(=O)[C@H](CO)NC(=O)[C@H](Cc1c[nH]c2ccccc12)NC(=O)[C@H](Cc1c[nH]cn1)NC(=O)[C@@H]1CCC(=O)N1 [Compound 11, pGlu-His-Trp-Ser-His-D-Ser(tBu)-Leu-Tyr-Pro-NHEt] ([pGlu]HWSH[dS](tBu)LYP-NHEt) | 1 | > 96 | 76
CC(C)C[C@H](NC(=O)[C@@H](Cc1ccc2ccccc2c1)NC(=O)[C@H](Cc1c[nH]cn1)NC(=O)[C@H](CO)NC(=O)[C@H](Cc1c[nH]c2ccccc12)NC(=O)[C@H](Cc1c[nH]cn1)NC(=O)[C@@H]1CCC(=O)N1)C(=O)N[C@@H](CCCNC(=N)N)C(=O)N1CCC[C@H]1C(=O)NCC(N)=O [Compound 23, pGlu-His-Trp-Ser-His-D-Nal-Leu-Arg-Pro-Gly-amide] ([pGlu]HWSH[d2Nal]LRPG-NH2) | 1 | > 96 | 106
N=C(N)NCCC[C@H](NC(=O)[C@H](Cc1c[nH]c2ccccc12)NC(=O)[C@@H](Cc1ccc2ccccc2c1)NC(=O)[C@H](Cc1ccc(O)cc1)NC(=O)[C@H](CO)NC(=O)[C@H](Cc1c[nH]c2ccccc12)NC(=O)[C@H](Cc1c[nH]cn1)NC(=O)[C@@H]1CCC(=O)N1)C(=O)N1CCC[C@H]1C(=O)NCC(N)=O [Compound 24, pGlu-His-Trp-Ser-Tyr-D-Nal-Trp-Arg-Pro-Gly-amide] ([pGlu]HWSY[d2Nal]WRPG-NH2) | 5 | < 96 | 87
N=C(N)NCCC[C@H](NC(=O)[C@H](Cc1c[nH]c2ccccc12)NC(=O)[C@@H](Cc1ccc2ccccc2c1)NC(=O)[C@H](Cc1c[nH]cn1)NC(=O)[C@H](CO)NC(=O)[C@H](Cc1c[nH]c2ccccc12)NC(=O)[C@H](Cc1c[nH]cn1)NC(=O)[C@@H]1CCC(=O)N1)C(=O)N1CCC[C@H]1C(=O)NCC(N)=O [Compound 27, pGlu-His-Trp-Ser-His-D-Nal-Trp-Arg-Pro-Gly-amide] ([pGlu]HWSH[d2Nal]WRPG-NH2) | 1 | > 96 | 108
NC(=O)CNC(=O)[C@@H]1CCCN1C(=O)[C@H](Cc1ccc(O)cc1)NC(=O)[C@H](Cc1c[nH]c2ccccc12)NC(=O)[C@@H](Cc1ccc2ccccc2c1)NC(=O)[C@H](Cc1ccc(O)cc1)NC(=O)[C@H](CO)NC(=O)[C@H](Cc1c[nH]c2ccccc12)NC(=O)[C@H](Cc1c[nH]cn1)NC(=O)[C@@H]1CCC(=O)N1 [Compound 30, pGlu-His-Trp-Ser-Tyr-D-Nal-Trp-Tyr-Pro-Gly-amide] ([pGlu]HWSY[d2Nal]WYPG-NH2) | 1 | < 96 | 12
CCNC(=O)[C@@H]1CCCN1C(=O)[C@H](CCCNC(=N)N)NC(=O)[C@H](CC(C)C)NC(=O)[C@@H](CC(C)C)NC(=O)[C@H](Cc1c[nH]cn1)NC(=O)[C@H](CO)NC(=O)[C@H](Cc1c[nH]c2ccccc12)NC(=O)[C@H](Cc1c[nH]cn1)NC(=O)[C@@H]1CCC(=O)N1 [Compound 42, pGlu-His-Trp-Ser-His-D-Leu-Leu-Arg-Pro-NHEt] ([pGlu]HWSH[dL]LRP-NHEt) | 1 | > 96 | 102
CCNC(=O)[C@@H]1CCCN1C(=O)[C@H](Cc1ccc(O)cc1)NC(=O)[C@H](Cc1c[nH]c2ccccc12)NC(=O)[C@@H](CC(C)C)NC(=O)[C@H](Cc1ccc(O)cc1)NC(=O)[C@H](CO)NC(=O)[C@H](Cc1c[nH]c2ccccc12)NC(=O)[C@H](Cc1c[nH]cn1)NC(=O)[C@@H]1CCC(=O)N1 [Compound 49, pGlu-His-Trp-Ser-Tyr-D-Leu-Trp-Tyr-Pro-NHEt] ([pGlu]HWSY[dL]WYP-NHEt) | – | > 96 | 77
CCNC(=O)[C@@H]1CCCN1C(=O)[C@H](Cc1ccc(O)cc1)NC(=O)[C@H](CC(C)C)NC(=O)[C@@H](Cc1cn(Cc2ccccc2)cn1)NC(=O)[C@H](Cc1ccc(O)cc1)NC(=O)[C@H](CO)NC(=O)[C@H](Cc1c[nH]c2ccccc12)NC(=O)[C@H](Cc1c[nH]cn1)NC(=O)[C@@H]1CCC(=O)N1 [Compound 59, pGlu-His-Trp-Ser-Tyr-D-Bhi-Leu-Tyr-Pro-NHEt] ([pGlu]HWSY[dHis(τ-Bn)]LYP-NHEt) | – | < 96 | 85
CCNC(=O)[C@@H]1CCCN1C(=O)[C@H](CCCNC(=N)N)NC(=O)[C@H](Cc1c[nH]c2ccccc12)NC(=O)[C@@H](Cc1cn(Cc2ccccc2)cn1)NC(=O)[C@H](Cc1c[nH]cn1)NC(=O)[C@H](CO)NC(=O)[C@H](Cc1c[nH]c2ccccc12)NC(=O)[C@H](Cc1c[nH]cn1)NC(=O)[C@@H]1CCC(=O)N1 [Compound 60, pGlu-His-Trp-Ser-His-D-Bhi-Trp-Arg-Pro-NHEt] ([pGlu]HWSH[dHis(τ-Bn)]WRP-NHEt) | – | > 96 | 102
CCNC(=O)[C@@H]1CCCN1C(=O)[C@H](Cc1ccc(O)cc1)NC(=O)[C@H](CC(C)C)NC(=O)[C@@H](Cc1cn(Cc2ccccc2)cn1)NC(=O)[C@H](Cc1c[nH]cn1)NC(=O)[C@H](CO)NC(=O)[C@H](Cc1c[nH]c2ccccc12)NC(=O)[C@H](Cc1c[nH]cn1)NC(=O)[C@@H]1CCC(=O)N1 [Compound 61, pGlu-His-Trp-Ser-His-D-Bhi-Leu-Tyr-Pro-NHEt] ([pGlu]HWSH[dHis(τ-Bn)]LYP-NHEt) | – | > 96 | 112
NC(=O)CNC(=O)[C@@H]1CCCN1C(=O)[C@H](Cc1ccc(O)cc1)NC(=O)[C@H](Cc1c[nH]c2ccccc12)NC(=O)[C@@H](Cc1c[nH]c2ccccc12)NC(=O)[C@H](Cc1c[nH]cn1)NC(=O)[C@H](CO)NC(=O)[C@H](Cc1c[nH]c2ccccc12)NC(=O)[C@H](Cc1c[nH]cn1)NC(=O)[C@@H]1CCC(=O)N1 [Compound 65, pGlu-His-Trp-Ser-His-D-Trp-Trp-Tyr-Pro-Gly-amide] ([pGlu]HWSH[dW]WYPG-NH2) | – | > 96 | 72

— US11434258B2, “Compounds (immunorhelins)” (ISR IMMUNE SYSTEM REGULATION HOLDING AB (PUBL), priority 2017, dated 2022)
